From patent US8841269B2, “Polynucleotides for use in treating and diagnosing cancers” (Creighton University, priority 2010, dated 2014) come the findings set out here.

Entries after “also recorded” stand apart in the source; their conditions may differ.

Data set [1] can be described thus: Stability of miRNAs in serum (room temperature, freeze/thaw). Type of data set: physicochemical, human. The following applies: serum from a healthy person, freeze/thaw up to eight times. On the procedure: FIG. 21. Stability of miRNAs in room temperature for number of time points. 300 μl of sera from a healthy person was thawed on ice and lysed with an equal volume of 2× Denaturing Solution (Ambion). RNA was isolated spiked sera using the mirVana PARIS kit following the manufacturer's protocol for liquid samples (Ambion). RNA was eluted with 50 μl of nuclease-free water. This experiment was performed in triplicates.
FIG. 22. Stability of miRNAs in freeze/thaws. 300 μl of sera from a healthy person was thawed on ice, exogenous miRNAs were spiked in, and then performed freeze/thaw cycles for the indicated times, then lysed with an equal volume of 2× Denaturing Solution (Ambion). RNA was isolated spiked sera using the mirVana PARIS kit following the manufacturer's protocol for liquid samples (Ambion). RNA was eluted with 50 μl of nuclease-free water. This experiment was performed in triplicates.
Second, we wanted to know whether our lab conditions such as temperature and freezing and thawing affect the stability of miRNAs. We selected a serum sample from healthy […], and incubated in room temperature for a series of time points (spiked three exogenous miRNAs as external controls) (FIG. 21). As expected, the selected miRNAs were very stable throughout the experiment. This observation is in consistent with the literature (Mitchell et al., 2008, Proc. Natl. Acad. Sci. U.S.A 105:10513-8). […]

Data set [2] can be described thus: Real-time PCR of let-7 levels after mimic transfection (Example 2). Type of data set: cell-based, human. On the procedure: To analyze mature let-7 miRNAs with real-time PCR, total RNA was isolated from the cell lines using mirVana miRNA isolation kit (Ambion Inc., Austin, Tex.) or from FFPE tissues using the miRNeasy FFPE Kit (Qiagen, Valencia, Calif.) following the manufacturer's instructions. We collected FFPE breast tissues from 13 benign, 16 ductal carcinomas in situ (DCIS), and 15 invasive ductal carcinomas (IDC), all of which were prepared as 50 μm thick sheets. The benign breast tissues were from surgical resections of abnormal breast lesions with non-neoplastic phenotypes such as calcification, fibrocystic changes or stromal fibrosis. cDNA was synthesized using 100 ng total RNA in a reaction volume of 15 μL and following the protocol of Taqman microRNA reverse transcription kit (Applied Biosystems, Foster City, Calif.). After 15 dilution, 9 μl, cDNA mixture was used for real-time PCR in 20 μL reaction volume, including 10 μL of TaqMan universal PCR master mix (no ampErase UNG) and 1 μL Taqman probe (Applied Biosystems, Foster City, Calif.). Real-time PCR was performed on 7900HT realtime PCR instrument (Applied Biosystems). PCR was initiated by two holds of 52° C. 2 min and 94° C. 10 min each, followed by 40 cycles of 15 s at 95° C. and 1 min at 60° C. The level of each miRNA was expressed following the 2^−ΔCt method using the small nuclear RNA RNU48 as the internal reference.
Let-7 miRNA or negative control #1 miRNA of 60 nmol/L (Ambion, Austin, Tex.) was transfected into cells with the siPORT NeoFX reagent (Ambion, Austin, Tex.) following the manufacturer's protocol.
For orientation: Quantitative PCR measures a nucleic acid by following its amplification.

In the next data set the test system is MCF7 cells. Put plainly: Annexin-V binding assay for apoptosis in MCF7. Type of data set: cell-based, human. On the procedure: Annexin-V binding assay for apoptosis. […] The staining followed the protocol of FITC Annexin V Apoptosis Detection Kit I (Cat #556547, BD Biosciences). Cell populations were analyzed with a BD FACSAria™ flow cytometer. Approximately 20,000 cells were counted for each sample.

A further data set has as its system MCF7-Tam cells. Put plainly: MTT cell proliferation assay with tamoxifen in MCF7-Tam. In kind it is cell-based, human. The following applies: 1 μmol/L tamoxifen. The procedure:
MCF7-Tam cells were transfected with let-7 mimics or negative control in normal growth medium for 1 day, or in medium with 2.5% charcoal-stripped FBS for 2 days to exhaust endogenous estrogen. Ten thousand cells in the volume of 100 μL were seeded in a 96-well plate for 12 hours and assay lasted for another 4 days. For tamoxifen treatment, 1 μmol/L tamoxifen was added to each well of 96-well plate. Each treatment had 12 replicates on the plate. Medium volume was increased to 200 μL after the assay began. The cells were then incubated in 0.83 mg/mL 3-[4,5-dimethylthiazol-2-yl]-2,5-diphenyltetrazolium bromide (MTT) in growth medium at 37° C. for 4 hours and lysed in 100 μL of dimethyl sulfoxide at room temperature for 15 minutes. The absorbance in each well was measured at […] with an ELx800 Absorbance Microplate Reader (Biotek, Winooski, Vt.). Cell growth was expressed as a fraction of absorbance at day 0.
(In general: Formazan colour is commonly taken as a measure of viable cells.)

Data set [3] has as its system 3′ UTR of human ER-α36 gene. Put plainly: Luciferase reporter assay, ER-α36 3′ UTR let-7 binding site in pMIR-REPORT. In kind it is cell-based. The following applies: MCF7 cells; for luciferase activity, ER-α36 3′-UTR binding site: 60 nmol/L mimics. From the text:
A fragment of the 3′ UTR of human ER-α36 gene, which harbors the putative let-7 target sites, was synthesized (IDT, Coralville, Iowa). With the SpeI and HindIII restriction sites at the ends, respectively, the sense strand is 5′-ctag[…] (SEQ ID NO:41) and the antisense strand is 5′-agct[…] (SEQ ID NO:42). The sense and antisense oligonucleotides were annealed and ligated into the SpeI/HindIII sites of the pMIR-REPORT luciferase vector (Ambion, Austin, Tex.). The sequences were verified by DNA sequencing. Transfection was performed in 24-well plate using Lipofectamine 2000 (Invitrogen). Let-7 mimics, anti-let-7 inhibitors, or negative controls were transfected with 0.25 μg luciferase construct and 0.25 μg β-galactosidase plasmid (Ambion) to check transfection efficiency. Twenty-four hours post-transfection, the luciferase activity was measured using Dual-Glo Luciferase Assay System (Promega, Fitchburg, Wis.) in Veritas Microplate Luminometer (Turner Biosystems, Sunnyvale, Calif.).
For orientation: A reporter such as luciferase makes a cellular process visible.

Where [4] appears, read: MCF7-Tam, 6 days after transfection, vs negative control.
The mark [5] stands for this setting: MCF7-Tam, two days after transfection.
[6] abbreviates: MDA-MB-231, after 2 days, vs negative control cells.
Where [7] appears, read: E2 free medium (2.5% charcoal-stripped FBS).
Where [8] appears, read: complete (normal growth) medium with 10% FBS.

On to “let-7i: let-7i miRNA (mimic), 3′-UUGUCGUGUUUGAUGAUGGAGU-5′ (SEQ ID NO:14) (chemistry not given here; listed 3' to 5')”, for which the “stability in repeated freeze/thaws” value in data set [1] is “relatively stable”. For the same substance, the “increase of let-7 level after mimic transfection” value is on record as 100 fold in data set [2] (setting [4]), roughly 300 fold in data set [2] (setting [5]) and roughly 200 fold in data set [2] (setting [6]). In the data set with MCF7 cells (MCF7, after either 3 days or 6 days), the “effect on apoptosis” value was “not significant”. In addition, the figures for the “tamoxifen sensitivity / cell growth (MTT) with tamoxifen” value in the data set with MCF7-Tam cells (setting [7]) and in the data set with MCF7-Tam cells (setting [8]) were “grew significantly slower; also recorded: significantly enhanced tamoxifen sensitivity” and “does not affect tamoxifen sensitivity”, respectively. Further, the “luciferase activity, ER-α36 binding site” value in data set [3] is on record as “significantly inhibited the luciferase activity”. The “luciferase activity, mutated ER-α36 binding sequence” value in data set [3] was “abrogated the inhibitory effects; also recorded: did not show inhibition”. Also, the “luciferase activity, ER-α36 3′-UTR binding site” value in data set [3] is recorded as “about 60 % of the activity in the control cells”.
For “let-7b: let-7b miRNA (mimic), 3′-UUGGUGUGUUGGAUGAUGGAGU-5′ (SEQ ID NO:8) (chemistry not given here; listed 3' to 5')”, the “stability in repeated freeze/thaws” value in data set [1] is given as “relatively stable”. Further, the entries for the “increase of let-7 level after mimic transfection” value in data set [2] (setting [4]), in data set [2] (setting [5]) and in data set [2] (setting [6]) were 100 fold, roughly 600 fold and roughly 400 fold, respectively. Moreover, the apoptotic rate is on record as 28.6% in the data set on MCF7 cells (MCF7, after 6 days) and 7% in the data set with MCF7 cells (MCF7, three days post-transfection). The “tamoxifen sensitivity / cell growth (MTT) with tamoxifen” value in the data set with MCF7-Tam cells (setting [7]) is on record as “grew significantly slower; also recorded: significantly enhanced tamoxifen sensitivity”; in the data set with MCF7-Tam cells (setting [8]) it was “does not affect tamoxifen sensitivity”. Moreover, the “luciferase activity, ER-α36 binding site” value in data set [3] was “significantly inhibited the luciferase activity”. For the same substance, the “luciferase activity, mutated ER-α36 binding sequence” value in data set [3] is “abrogated the inhibitory effects; also recorded: did not show inhibition”. In data set [3], the “luciferase activity, ER-α36 3′-UTR binding site” value is reported as “about 60 % of the activity in the control cells”.
